From patent US20120003183A1, “ADDITION SALTS OF TROMETHAMINE WITH AZABIPHENYLAMINOBENZOIC ACID DERIVATIVES AS DHODH INHIBITORS” (priority 2009, published 2012)
Counter-ions that a name gives are not always drawn.

What was measured:
Assay type in all cases: physicochemical
[1] = Dynamic Vapour Sorption (DVS) moisture sorption/desorption; details: for Mass increase at 80% relative humidity (DVS): 80% RH; for Mass increase at 90% relative humidity (DVS): 90% RH; for Hygroscopicity / Hysteresis in DVS sorption/desorption: result in words
Protocol: Dynamic Vapour Sorption (DVS) profiles were obtained using an Igasorp Hiden Isochema instrument (serial number IGA-SA-066). After an initial stabilization period, at least two isotherms (at 25° C.) were obtained for each sample: a moisture sorption from 0 to 95% relative humidity and moisture desorption from 95% relative humidity to dryness. Both isotherms were performed in 10% humidity steps, with a minimum time of 10 minutes and a maximum time of 30 minutes for each step.

[2] = Differential scanning calorimetry (DSC) thermogram, stability; details: heated 30 to 350° C. at 10° C./min; result in words
Protocol: The differential scanning calorimetry (DSC) thermograms analyses were obtained using a DSC-821 Mettler-Toledo instrument, serial number 5117423874. Samples were weighed into an aluminium pan, an aluminium lid placed on top of the sample and compressed with a brass rod. Samples were equilibrated at 30° C. and heated at 10° C./min to 350° C. The instrument was calibrated using indium and zinc standards.

Water-solubility test = details: for Water Solubility @ 25° C. (mg/mL as acid): 25° C. (room temperature)
Protocol: The solubility of the of Examples 1-3 in water at room temperature was determined together with the solubility of the corresponding free acids.

| SMILES | Mass increase at 80% relative humidity (DVS) ([1]; 25° C.) | Mass increase at 90% relative humidity (DVS) ([1]; 25° C.) | Hygroscopicity [1] | Hysteresis in DVS sorption/desorption [1] | Stability (polymorph conversion / decomposition) from DSC thermogram [2] | Solubility in water compared with the corresponding free acids (Water-solubility test; result in words) | Water Solubility @ 25° C. (mg/mL as acid) (Water-solubility test) | Mass increase at 95% relative humidity (DVS) ([1]; 95% RH, 25° C.) |
| --- | --- | --- | --- | --- | --- | --- | --- | --- |
| O=C(O)c1cc(C2CC2)ccc1Nc1cnc(-c2c(F)cccc2F)nc1 [Example 1, 5-cyclopropyl-2-{[2-(2,6-difluorophenyl)pyrimidin-5-yl]amino}benzoic acid, tromethamine salt] | 1.2% | 6.1% | not hygroscopic | no hysteresis | high stability | Particularly good results | 1.780 mg/mL as acid | – |
| O=C(O)c1cc(C2CC2)ccc1Nc1cnc(-c2ccccc2C(F)(F)F)nc1 [Example 2, 5-cyclopropyl-2-{[2-(2-(trifluoromethyl)phenyl)pyrimidin-5-yl]amino}benzoic acid, tromethamine salt] | 3.4% | – | slightly hygroscopic | no hysteresis | high stability | – | 0.139 mg/mL as acid | 7.0% |
| Cc1ccc(Nc2ccc(-c3cccc(F)c3F)nc2)c(C(=O)O)c1 [Example 3, 5-methyl-2-{[6-(2,3-difluorophenyl)pyridin-3-yl]amino}benzoic acid, tromethamine salt] | 1.8% | 5.1% | not hygroscopic | no hysteresis | high stability | – | 0.540 mg/mL as acid | – |

Next, values leading:

| Mass increase at 80% relative humidity (DVS) ([1]; 25° C.) | Mass increase at 90% relative humidity (DVS) ([1]; 25° C.) | Hygroscopicity [1] | Hysteresis in DVS sorption/desorption [1] | Stability (polymorph conversion / decomposition) from DSC thermogram [2] | Solubility in water compared with the corresponding free acids (Water-solubility test; result in words) | Water Solubility @ 25° C. (mg/mL as acid) (Water-solubility test) | Mass increase at 95% relative humidity (DVS) ([1]; 95% RH, 25° C.) | SMILES |
| --- | --- | --- | --- | --- | --- | --- | --- | --- |
| – | – | – | – | – | – | 0.030 mg/mL as acid | – | O=C(O)c1cc(C2CC2)ccc1Nc1cnc(-c2c(F)cccc2F)nc1 [Example C1, 5-cyclopropyl-2-{[2-(2,6-difluorophenyl)pyrimidin-5-yl]amino}benzoic acid, reference compound] |
| – | – | – | – | – | – | 0.003 mg/mL as acid | – | O=C(O)c1cc(C2CC2)ccc1Nc1cnc(-c2ccccc2C(F)(F)F)nc1 [Example C2, 5-cyclopropyl-2-{[2-(2-(trifluoromethyl)phenyl)pyrimidin-5-yl]amino}benzoic acid, reference compound] |
| – | – | – | – | – | – | 0.007 mg/mL as acid | – | Cc1ccc(Nc2ccc(-c3cccc(F)c3F)nc2)c(C(=O)O)c1 [Example C3, 5-methyl-2-{[6-(2,3-difluorophenyl)pyridin-3-yl]amino}benzoic acid, reference compound] |
